Source: patent US20180132470A1, “CONTROLLED STAND-ALONE MATRIX SYSTEM FOR THE CONTROLLED DISTRIBUTION OF ACTIVE SUBSTANCES” (AB7 Innovation S.A.S.U., priority 2015, published 2018)

Experiment: Release of IR3535 from cast polyurethane matrix, with and without heating activation
Assay type: physicochemical
Description: For the matrix, the same inputs are used as in Example 1. The PMEO is replaced by insecticide (IR3535®), which represents 30% by weight in relation to the total weight of the matrix.
The electronic card is programmed as in Example 2 except that the heating is systematically cut off when the intra-matrix temperature reaches 150° C.
FIG. 4 represents the reference release profile of IR3535® which is a non-volatile substance at ambient temperature. […] The sequential and successive activations were performed for 18 hours at a rate of 10 minutes heating followed by 20 minutes' pause. The intra-matrix temperature measured was 45° C.

Question: Which “residual quantity of IR3535 in relation to the quantity initially incorporated” value (after 590 sequences of heating) does the source give for CCCCN(CCC(=O)OCC)C(C)=O [IR3535®, ethyl-3-acetyl(butyl)amino-propanoate] here?
Answer: Its value is 9.5 % by weight.

Question: And the “release of IR3535 initially incorporated” value (after 18 hours, sequential activations 10 min heating / 20 min pause, intra-matrix 45° C., cast polyurethane matrix)?
Answer: Its value is “up to 3 % by weight”.

Question: What about the “release of IR3535 by passive diffusion” value (same polyurethane matrix unheated at ambient temperature, even after 20 hours) of the same compound?
Answer: The value was “releases absolutely nothing”.

Question: And the “average quantity of IR3535 released” value (solely at moments of activation, cast polyurethane matrix)?
Answer: The value was 3.5 mg/h.
